Key:
[1] = biological target: 5-hydroxytryptamine receptor 4 (Cavia porcellus, UniProt O70528); format: cell membranes, Dunkin-Hartley, Striatum, Membrane; note: in other assays of this panel Not Active means under 50% inhibition at 10 µM
[2] = biological target: T1, C-X-C chemokine receptor type 1 (Homo sapiens, UniProt P25024); note: in other assays of this panel Not Active means under 50% inhibition at 10 µM
T1 sequence (P25024 whole entry): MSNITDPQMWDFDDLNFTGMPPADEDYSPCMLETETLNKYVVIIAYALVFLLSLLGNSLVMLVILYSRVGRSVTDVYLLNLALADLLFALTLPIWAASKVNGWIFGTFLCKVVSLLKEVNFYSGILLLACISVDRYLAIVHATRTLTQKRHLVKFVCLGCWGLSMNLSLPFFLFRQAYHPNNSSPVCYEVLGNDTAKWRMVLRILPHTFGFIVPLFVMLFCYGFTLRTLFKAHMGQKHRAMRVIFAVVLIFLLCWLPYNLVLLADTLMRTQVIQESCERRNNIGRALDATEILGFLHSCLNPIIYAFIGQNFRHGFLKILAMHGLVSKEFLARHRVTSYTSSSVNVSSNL

[3] = biological target: T2, C-C chemokine receptor type 4 (Homo sapiens, UniProt P51679); format: cell membranes, Chem-1, Membrane; conditions: chem-1; note: in other assays of this panel Not Active means under 50% inhibition at 10 µM
T2 sequence (P51679 whole entry): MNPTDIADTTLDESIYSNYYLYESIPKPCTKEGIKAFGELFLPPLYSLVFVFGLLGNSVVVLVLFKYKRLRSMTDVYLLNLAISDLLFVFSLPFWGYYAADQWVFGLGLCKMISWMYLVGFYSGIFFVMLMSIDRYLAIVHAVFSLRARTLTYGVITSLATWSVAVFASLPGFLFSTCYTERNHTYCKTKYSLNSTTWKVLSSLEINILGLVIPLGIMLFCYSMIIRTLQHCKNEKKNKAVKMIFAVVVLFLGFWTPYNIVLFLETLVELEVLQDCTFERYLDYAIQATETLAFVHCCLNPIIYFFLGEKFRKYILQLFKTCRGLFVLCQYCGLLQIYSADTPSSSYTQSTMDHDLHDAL

[4] = biological target: T3, Alpha-1B adrenergic receptor (Rattus norvegicus, UniProt P15823); assay: DRUGMATRIX: Alpha-1B adrenergic receptor radioligand binding (ligand: prazosin); format: cell membranes, Wistar, Liver, Membrane; conditions: Not Active = under 50% inhibition at 10 µM
T3 sequence (P15823 whole entry): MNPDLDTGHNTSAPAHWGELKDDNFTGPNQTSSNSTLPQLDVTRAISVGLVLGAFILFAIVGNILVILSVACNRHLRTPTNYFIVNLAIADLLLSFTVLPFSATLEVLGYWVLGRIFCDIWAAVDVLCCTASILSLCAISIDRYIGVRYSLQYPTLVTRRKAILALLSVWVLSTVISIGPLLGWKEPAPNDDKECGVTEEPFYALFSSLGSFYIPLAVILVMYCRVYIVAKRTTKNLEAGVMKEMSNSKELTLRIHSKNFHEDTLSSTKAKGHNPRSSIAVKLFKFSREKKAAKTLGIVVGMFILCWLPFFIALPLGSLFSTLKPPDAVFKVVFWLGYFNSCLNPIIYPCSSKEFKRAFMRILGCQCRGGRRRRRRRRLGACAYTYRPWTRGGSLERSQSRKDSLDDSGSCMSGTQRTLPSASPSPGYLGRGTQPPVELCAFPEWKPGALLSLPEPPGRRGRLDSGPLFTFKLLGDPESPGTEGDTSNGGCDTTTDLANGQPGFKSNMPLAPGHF

Vasopressin V1a receptor = Vasopressin V1a receptor (Homo sapiens, UniProt P37288); format: cell membranes, Membrane; conditions: hek293; note: in other assays of this panel Not Active means under 50% inhibition at 10 µM
Glycine receptor = Glycine receptor (Rattus norvegicus, UniProt P22771+P24524+P07727+P20781); format: cell membranes, Wistar, Spinal cord, Membrane; note: in other assays of this panel Not Active means under 50% inhibition at 10 µM
Estrogen receptor beta = Estrogen receptor beta (Homo sapiens, UniProt Q92731); conditions: sf9; note: in other assays of this panel Not Active means under 50% inhibition at 10 µM
Sequence of Estrogen receptor beta (Q92731 whole entry): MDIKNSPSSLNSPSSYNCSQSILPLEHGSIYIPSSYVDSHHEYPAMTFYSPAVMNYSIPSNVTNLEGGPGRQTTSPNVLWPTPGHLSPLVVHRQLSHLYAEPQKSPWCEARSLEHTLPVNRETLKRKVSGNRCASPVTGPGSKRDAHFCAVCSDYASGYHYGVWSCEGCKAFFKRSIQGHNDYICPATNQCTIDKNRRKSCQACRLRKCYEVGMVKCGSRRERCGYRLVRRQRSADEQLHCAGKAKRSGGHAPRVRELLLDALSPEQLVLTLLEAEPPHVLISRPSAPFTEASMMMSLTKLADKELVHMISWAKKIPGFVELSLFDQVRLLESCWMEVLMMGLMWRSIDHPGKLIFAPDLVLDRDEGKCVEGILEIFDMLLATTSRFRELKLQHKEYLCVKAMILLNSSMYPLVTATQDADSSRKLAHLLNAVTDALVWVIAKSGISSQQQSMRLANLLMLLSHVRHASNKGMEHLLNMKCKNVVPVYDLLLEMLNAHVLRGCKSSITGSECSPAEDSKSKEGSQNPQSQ

Sequence of 5-hydroxytryptamine receptor 4 (O70528 whole entry): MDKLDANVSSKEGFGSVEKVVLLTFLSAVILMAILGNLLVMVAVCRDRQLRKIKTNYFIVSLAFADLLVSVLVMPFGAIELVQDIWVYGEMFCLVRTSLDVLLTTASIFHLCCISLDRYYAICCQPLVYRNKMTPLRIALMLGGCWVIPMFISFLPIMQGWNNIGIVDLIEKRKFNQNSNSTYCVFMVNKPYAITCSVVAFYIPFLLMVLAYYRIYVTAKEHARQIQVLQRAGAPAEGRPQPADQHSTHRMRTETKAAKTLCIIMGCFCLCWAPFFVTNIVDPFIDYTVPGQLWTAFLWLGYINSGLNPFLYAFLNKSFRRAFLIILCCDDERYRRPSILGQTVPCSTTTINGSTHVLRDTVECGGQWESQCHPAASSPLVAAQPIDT
Sequence of Vasopressin V1a receptor (P37288 whole entry): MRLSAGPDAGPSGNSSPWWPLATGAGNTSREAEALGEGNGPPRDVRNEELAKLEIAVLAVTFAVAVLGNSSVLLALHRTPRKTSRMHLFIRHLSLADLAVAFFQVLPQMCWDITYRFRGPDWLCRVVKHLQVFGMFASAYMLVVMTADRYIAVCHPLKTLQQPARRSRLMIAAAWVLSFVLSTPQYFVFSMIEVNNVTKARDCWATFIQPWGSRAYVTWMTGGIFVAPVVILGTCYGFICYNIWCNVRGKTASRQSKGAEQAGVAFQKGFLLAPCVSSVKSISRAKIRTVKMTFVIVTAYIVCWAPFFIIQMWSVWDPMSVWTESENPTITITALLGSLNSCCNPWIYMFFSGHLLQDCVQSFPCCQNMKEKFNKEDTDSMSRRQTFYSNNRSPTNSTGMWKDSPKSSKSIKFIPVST

C=CCN1CC[C@]23c4c5ccc(O)c4O[C@H]2/C(=N/N=C2\CC[C@@]4(O)[C@H]6Cc7ccc(O)c8c7[C@@]4(CCN6CC=C)[C@H]2O8)CC[C@@]3(O)[C@H]1C5 [NALOXONAZINE]
Not Active: IC50 [1] | IC50 [2] | IC50 [3] | IC50 [4] | IC50 (Vasopressin V1a receptor) | IC50 (Glycine receptor) | IC50 (Estrogen receptor beta)

Oc1ncnc2[nH]ncc12 [ALLOPURINOL]
Not Active: IC50 [1] | IC50 [2] | IC50 [3] | IC50 [4] | IC50 (Vasopressin V1a receptor) | IC50 (Glycine receptor) | IC50 (Estrogen receptor beta)

CCC1(c2ccccc2)C(=O)NC(=O)NC1=O [PHENOBARBITAL]
Not Active: IC50 [1] | IC50 [2] | IC50 [3] | IC50 [4] | IC50 (Vasopressin V1a receptor) | IC50 (Glycine receptor) | IC50 (Estrogen receptor beta)

CHROMIC CHLORIDE
Not Active: IC50 [1] | Ki [1] | IC50 [2] | Ki [2] | IC50 [3] | Ki [3] | IC50 [4] | Ki [4] | IC50 (Vasopressin V1a receptor) | Ki (Vasopressin V1a receptor) | IC50 (Glycine receptor) | Ki (Glycine receptor) | IC50 (Estrogen receptor beta) | Ki (Estrogen receptor beta)

CCCCCCNC(=O)n1cc(F)c(=O)[nH]c1=O [CARMOFUR]
Not Active: IC50 [1] | IC50 [2] | IC50 [3] | IC50 [4] | IC50 (Vasopressin V1a receptor) | IC50 (Glycine receptor) | IC50 (Estrogen receptor beta)

O=C(O)CCc1nc(-c2ccccc2)c(-c2ccccc2)o1 [OXAPROZIN]
Not Active: IC50 [1] | IC50 [2] | IC50 [3] | IC50 [4] | IC50 (Vasopressin V1a receptor) | IC50 (Glycine receptor) | IC50 (Estrogen receptor beta)

CCN1C[C@]2(COC)[C@H](O)C[C@H](OC)[C@@]34[C@@H]5C[C@@]6(O)[C@H](OC(=O)c7ccccc7)[C@@H]5[C@@](OC(C)=O)([C@@H]([C@H](OC)[C@H]23)[C@@H]14)[C@@H](O)[C@@H]6OC [ACONITINE]
Not Active: IC50 [1] | IC50 [2] | IC50 [3] | IC50 [4] | IC50 (Vasopressin V1a receptor) | IC50 (Glycine receptor) | IC50 (Estrogen receptor beta)

Nc1nc(F)nc2c1ncn2[C@@H]1O[C@H](CO)[C@@H](O)[C@@H]1O [FLUDARABINE]
Not Active: IC50 [1] | IC50 [2] | IC50 [3] | IC50 [4] | IC50 (Vasopressin V1a receptor) | IC50 (Glycine receptor) | IC50 (Estrogen receptor beta)

O=C1CN(/N=C/c2ccc([N+](=O)[O-])o2)C(=O)N1 [NITROFURANTOIN]
Not Active: IC50 [1] | IC50 [2] | IC50 [3] | IC50 [4] | IC50 (Vasopressin V1a receptor) | IC50 (Glycine receptor) | IC50 (Estrogen receptor beta)

CC12CCC(CC1=O)C2(C)C (configuration not stated) [CAMPHOR]
Not Active: IC50 [1] | IC50 [2] | IC50 [3] | IC50 [4] | IC50 (Vasopressin V1a receptor) | IC50 (Glycine receptor) | IC50 (Estrogen receptor beta)

Nc1nc(N)c2nc(CNc3ccc(C(=O)N[C@@H](CCC(=O)O)C(=O)O)cc3)cnc2n1 [AMINOPTERIN]
Not Active: IC50 [1] | IC50 [2] | IC50 [3] | IC50 [4] | IC50 (Vasopressin V1a receptor) | IC50 (Glycine receptor) | IC50 (Estrogen receptor beta)

OC[C@H]1O[C@@H]2O[C@H]3[C@H](O)[C@@H](O)[C@@H](O[C@H]4[C@H](O)[C@@H](O)[C@@H](O[C@H]5[C@H](O)[C@@H](O)[C@@H](O[C@H]6[C@H](O)[C@@H](O)[C@@H](O[C@H]7[C@H](O)[C@@H](O)[C@@H](O[C@H]1[C@H](O)[C@H]2O)O[C@@H]7CO)O[C@@H]6CO)O[C@@H]5CO)O[C@@H]4CO)O[C@@H]3CO [ALFADEX]
Not Active: IC50 [1] | IC50 [2] | IC50 [3] | IC50 [4] | IC50 (Vasopressin V1a receptor) | IC50 (Glycine receptor) | IC50 (Estrogen receptor beta)

O=C(O)CNCP(=O)(O)O [GLYPHOSATE]
Not Active: IC50 [1] | IC50 [2] | IC50 [3] | IC50 [4] | IC50 (Vasopressin V1a receptor) | IC50 (Glycine receptor) | IC50 (Estrogen receptor beta)

O=C(Nc1ccc(Cl)c(Cl)c1)c1cc(Cl)cc(Cl)c1O [3,3',4',5-TETRACHLOROSALICYLANILIDE]
Not Active: IC50 [1] | IC50 [2] | IC50 [3] | IC50 [4] | IC50 (Vasopressin V1a receptor) | IC50 (Glycine receptor) | IC50 (Estrogen receptor beta)

COC(=O)C[C@](O)(CCC(C)(C)O)C(=O)O[C@@H]1C(OC)=C[C@]23CCCN2CCc2cc4c(cc2[C@H]13)OCO4 [HARRINGTONINE]
Not Active: IC50 [1] | IC50 [2] | IC50 [3] | IC50 [4] | IC50 (Vasopressin V1a receptor) | IC50 (Glycine receptor) | IC50 (Estrogen receptor beta)

COc1cc(NC(C)CCCN)c2ncccc2c1 (configuration not stated) [PRIMAQUINE]
Not Active: IC50 [1] | IC50 [2] | IC50 [3] | IC50 [4] | IC50 (Vasopressin V1a receptor) | IC50 (Glycine receptor) | IC50 (Estrogen receptor beta)

COc1cc([C@@H]2c3cc4c(cc3[C@H](O)[C@H]3COC(=O)[C@H]23)OCO4)cc(OC)c1OC [PODOFILOX]
Not Active: IC50 [1] | IC50 [2] | IC50 [3] | IC50 [4] | IC50 (Vasopressin V1a receptor) | IC50 (Glycine receptor) | IC50 (Estrogen receptor beta)

CARBOXYMETHYLCELLULOSE
Not Active: IC50 [1] | Ki [1] | IC50 [2] | Ki [2] | IC50 [3] | Ki [3] | IC50 [4] | Ki [4] | IC50 (Vasopressin V1a receptor) | Ki (Vasopressin V1a receptor) | IC50 (Glycine receptor) | Ki (Glycine receptor) | IC50 (Estrogen receptor beta) | Ki (Estrogen receptor beta)

NC(=O)CN1CCCC1=O
Not Active: IC50 [1] | IC50 [2] | IC50 [3] | IC50 [4] | IC50 (Vasopressin V1a receptor) | IC50 (Glycine receptor) | IC50 (Estrogen receptor beta)

Source: ChEMBL document CHEMBL1909046, “DrugMatrix in vitro pharmacology data”
